Assay results reported in PMC9296036, “A peptide interfering with the dimerization of oncogenic KITENIN protein and its stability suppresses colorectal tumour progression” (Clinical and Translational Medicine, 2022).
Ends that are not written are not given here.

Assay: Stability of KDIP in mouse serum in vitro (LC-MS/MS)
Format: in vitro ADME
Conditions: 10 pmol KDIP spiked to 10 μl serum, room temperature, 0-160 min (7 times), LC-MS/MS MRM, n=3 per time
Experimental: Experiment for stability in serum was conducted with seven different incubation time (0, 5, 10, 20, 40, 80, 160 min). KDIP 10 pmol was spiked to 10 μl of serum, and samples were incubated at room temperature. Samples for each incubation time were triplicated.
Peptide extraction from serum or tissue lysate was performed by solid‐phase extraction using Oasis HLB Cartridge 1‐cm^3 (30 mg). HLB cartridges were conditioned using ACN (1 ml) and 50% ACN, .5% FA (1 ml), followed by equilibration using .5% FA (2 ml). A volume of 10‐μl serum and 20 μl of tissue lysate were added by .5% FA to be 1 ml and were loaded on equilibrated cartridges. […]
Each sample was analysed using an Agilent 1100 Series high‐performance liquid chromatography pump (Agilent Technologies, USA) coupled to an LTQ linear ion trap mass spectrometer (Thermo Finnigan, USA). […] Peptide was quantified by multiple reaction monitoring (MRM) in positive ion mode, with a spray voltage of 2.3 kV. […] Furthermore, truncated forms ([…], […]) of KDIP that were detected during stability test were also analysed by following transitions: 468.5 → 404.8 (b16 ^+5), 468.5 → 444.85 (b18 ^+5), 468.5 → 505.7 (b16 ^+4), 468.5 → 551.35 (b18 + H2O^+4), 468.5 → 555.7 (b18 ^+4), 528.45 → 448.85 (b14 ^+4), 528.45 → 499.0 (b16 ^+4), 528.45 → 598.15 (b14 ^+3), 528.45 → 659.25 (b16 + H2O^+3) and 528.45 → 664.95 (b16 ^+3). […]

In the case of YARVRRRGPRRWRLVSDEAV [KDIP], the “terminal half-life in mouse serum in vitro” value is reported as 30.86 min.
